Values of other authors as cited in patent US20240383928A1, “PRODUCTION OF DIORGANOTIN DIHALIDES” (priority 2021, published 2024).

Tested on: mice
Conditions: intraperitoneal injection

Row | SMILES | 2-hr. LD50 [mg/kg] | 24-hr. LD50 [mg/kg] | LD50 (time not stated, all animals that survived for 25 minutes recovered) [mg/kg]
1 | C[CH2][Sn]([CH2]C)([CH2]C)[CH2]C [Sn(C2H5)4] | 660 | 130 | –
2 | [CH3][Sn]([CH3])([CH3])[CH3] [Sn(CH3)4, tetramethyl tin] | 140 | 18 | –
3 | CC[N+](CC)(CC)CC.[Cl-] [N(C2H5)4Cl] | – | – | 60
